These results are taken from US20260078103A1, “ISOQUINOLONES AS PI3K INHIBITORS” (OnKure, Inc., priority 2022, published 2026).

Holding throughout (format): cell-based
For assay [1], the system named is T47D cells expressing mutant PI3Ka (H1047R). Description: In vitro cell proliferation, T47D cells (CellTiter-Glo). The settings on record: inhibition of proliferation, read-out: Avg T-47D EC50. In a few lines:
(§1)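 1,500 cells/well seeded onto pre-stamped 10-pt dilution plates; T47D in RPMI + 10% FBS + insulin 0.2 units/mL, SKBR3 in McCoys 5a + 10% FBS. 72 h, 37 °C, 5% CO2. CTG readout. 0% = 0.1% DMSO, 100% = 10 uM Alpelisib; sigmoidal fit gives EC50.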
Background: ATP-based viability assays read luminescence as a measure of living cells.

The subject of assay [2] is SKBR3 cells express WT PI3Ka. Put plainly: In vitro cell proliferation, SKBR3 cells (CellTiter-Glo). Particulars: inhibition of proliferation. The essentials:
as §1

Assay [3] has as its system phosphorylation of AKT (pAKT) in T47D cells expressing mutant PI3Ka (H1047R). Put plainly: In vitro cell pAKT (Ser473) HTRF, T47D cells. The settings on record: cellular pAKT, T47D cells, mutant PI3Ka (H1047R), 6 hours, read-out: Avg T-47D IC50. In a few lines:
(§2)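 Cells seeded on plates pre-stamped with 10-point compound dilutions, then grown 6 h at 37 °C (T47D in RPMI/10% FBS/insulin; SKBR3 in McCoy's 5a/10% FBS). Lysates read for pAKT Ser473 by HTRF after overnight antibody incubation. Inhibition normalised to 0.1% DMSO and 10 uM alpelisib; IC50 by four-parameter fit.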

For assay [4], the system named is phosphorylation of AKT (pAKT) in SKBR3 cells express WT PI3Ka. Put plainly: In vitro cell pAKT (Ser473) HTRF, SKBR3 cells. The settings on record: cellular pAKT. The essentials: as §2
Background: In TR-FRET formats the signal depends on donor and acceptor labels being close together.

Where two headings read alike, the source gives them in different places.

As for `Cc1cc([C@@H](C)Nc2ccccc2C(=O)O)c2cc(-c3ccc(OCC(F)F)nc3)n(C)c(=O)c2c1` [Example 201], the concentration giving a half-maximal response (EC50) (commonly the concentration needed to bring the measured effect to its halfway point) was 1 to 500 nM in assay [1] (Homo sapiens, T47D, 72 h) and greater than 15000 nM in assay [2] (Homo sapiens, SK-BR-3, 72 h). The IC50 (in general, the midpoint of a concentration-inhibition curve) is 1 to 500 nM in assay [3] (Homo sapiens, T47D, 6 h) and greater than 15000 nM in assay [4] (Homo sapiens, SK-BR-3, 6 h).

For `Cc1cc([C@@H](C)Nc2ccccc2C(=O)O)c2cc(-c3ccc(O[C@H]4C[C@@H](F)C4)nc3)n(C)c(=O)c2c1` [Example 202], the figures for the EC50 in assay [1] (72 hours) and in assay [2] (72 hours) were 1 to 500 nM and greater than 15000 nM, respectively. The IC50 in assay [3] was 1 to 500 nM; in assay [4] (6 hours), greater than 15000 nM.

In the case of `Cc1cc([C@@H](C)Nc2ccccc2C(=O)O)c2cc(N3CCN(C(=O)OC4CC4)CC3)n(C)c(=O)c2c1` [Example 203], the EC50 in assay [1] (Homo sapiens, T47D, 72 h) was 1 to 500 nM; in assay [2] (Homo sapiens, SK-BR-3, 72 h), greater than 15000 nM. Besides, the IC50 was 1 to 500 nM in assay [3] (Homo sapiens, T47D, 6 h) and greater than 15000 nM in assay [4] (Homo sapiens, SK-BR-3, 6 h).

In the case of `Cc1cc([C@@H](C)Nc2ccccc2C(=O)O)c2cc(N3CCN(c4cccnc4C)CC3)n(C)c(=O)c2c1` [Example 206], the EC50 was in the range of 1 to 500 nM in assay [1] (Homo sapiens, T47D, 72 h) and 2000 to 15000 nM in assay [2] (Homo sapiens, SK-BR-3, 72 h). Moreover, the IC50 in assay [3] (Homo sapiens, T47D, 6 h) is 1 to 500 nM; in assay [4] (Homo sapiens, SK-BR-3, 6 h), 500 to 2000 nM.

Take `Cc1cc([C@@H](C)Nc2ccccc2C(=O)O)c2cc(N3CC4CC(C3)N4CC(F)(F)F)n(C)c(=O)c2c1` [Example 207]: the EC50 is 1 to 500 nM in assay [1] (Homo sapiens, T47D, 72 h) and greater than 15000 nM in assay [2] (Homo sapiens, SK-BR-3, 72 h). The IC50 in assay [3] (Homo sapiens, T47D, 6 h) was 1 to 500 nM; in assay [4] (Homo sapiens, SK-BR-3, 6 h), greater than 15000 nM.

`Cc1cc([C@@H](C)Nc2ccccc2C(=O)O)c2cc(-c3ccc(OCC4CC4)nc3)n(C)c(=O)c2c1` [Example 208]: the EC50 in assay [1] (Homo sapiens, T47D, 72 h) is 1 to 500 nM; in assay [2] (Homo sapiens, SK-BR-3, 72 h), greater than 15000 nM. Also, the IC50 in assay [3] (Homo sapiens, T47D, 6 h) is 1 to 500 nM; in assay [4] (Homo sapiens, SK-BR-3, 6 h), greater than 15000 nM.

On to `Cc1cc([C@@H](C)Nc2ccccc2C(=O)O)c2cc(-c3ccc(C)nc3C)n(C)c(=O)c2c1` [Example 209], for which the EC50 in assay [1] (Homo sapiens, T47D, 72 h) is 500 to 2000 nM; in assay [2] (Homo sapiens, SK-BR-3, 72 h), greater than 15000 nM. Further, the IC50 in assay [3] (Homo sapiens, T47D, 6 h) was 1 to 500 nM; in assay [4] (Homo sapiens, SK-BR-3, 6 h), greater than 15000 nM.

On to `Cc1cc([C@@H](C)Nc2ccccc2C(=O)O)c2cc(-c3cnc(C)c(C)c3)n(C)c(=O)c2c1` [Example 210], for which the EC50 was 500 to 2000 nM in assay [1] (Homo sapiens, T47D, 72 h) and greater than 15000 nM in assay [2] (Homo sapiens, SK-BR-3, 72 h). The IC50 in assay [3] (Homo sapiens, T47D, 6 h) was 1 to 500 nM; in assay [4] (Homo sapiens, SK-BR-3, 6 h), greater than 15000 nM.

For the compound `Cc1cc([C@@H](C)Nc2ccccc2C(=O)O)c2cc(-c3cnn(C4CC4)c3)n(C)c(=O)c2c1` [Example 212], the EC50 in assay [1] (Homo sapiens, T47D, 72 h) is 500 to 2000 nM; in assay [2] (Homo sapiens, SK-BR-3, 72 h) it was greater than 15000 nM. The IC50 is 500 to 2000 nM in assay [3] (Homo sapiens, T47D, 6 h) and greater than 15000 nM in assay [4] (Homo sapiens, SK-BR-3, 6 h).

As to `Cc1cc([C@@H](C)Nc2ccccc2C(=O)O)c2cc(N3CCN(Cc4ccnc(C)n4)CC3)n(C)c(=O)c2c1` [Example 214], the EC50 was 1 to 500 nM in assay [1] (Homo sapiens, T47D, 72 h) and greater than 15000 nM in assay [2] (Homo sapiens, SK-BR-3, 72 h). The IC50 in assay [3] (Homo sapiens, T47D, 6 h) was 1 to 500 nM; in assay [4] (Homo sapiens, SK-BR-3, 6 h), greater than 15000 nM.

`Cc1cc([C@@H](C)Nc2ccccc2C(=O)O)c2cc(-c3ccc(OC4CC4)nc3)n(C)c(=O)c2c1` [Example 216]: the EC50 in assay [1] (Homo sapiens, T47D, 72 h) was 1 to 500 nM; in assay [2] (Homo sapiens, SK-BR-3, 72 h), greater than 15000 nM. The IC50 in assay [3] (Homo sapiens, T47D, 6 h) was 1 to 500 nM; in assay [4] (Homo sapiens, SK-BR-3, 6 h), greater than 15000 nM.

With `Cc1cc(C(C)Nc2ccccc2C(=O)O)c2cc(-c3ccc(OC4CC(F)C4)nc3)n(C)c(=O)c2c1` (stereo not shown) [Example 217], the values for the EC50 in assay [1] (72 hours) and in assay [2] (72 hours) were 1 to 500 nM and 2000 to 15000 nM, respectively. The half-inhibitory concentration (IC50) in assay [3] is 1 to 500 nM; in assay [4] (6 hours), greater than 15000 nM.

With `COc1ccc(N2CCN(c3cc4c([C@@H](C)Nc5ccccc5C(=O)O)cc(C)cc4c(=O)n3C)CC2)cn1` [Example 218], the EC50 fell in the range of 1 to 500 nM in assay [1] (Homo sapiens, T47D, 72 h) and 2000 to 15000 nM in assay [2] (Homo sapiens, SK-BR-3, 72 h). Also, the IC50 in assay [3] (Homo sapiens, T47D, 6 h) was in the range of 1 to 500 nM; in assay [4] (Homo sapiens, SK-BR-3, 6 h), 2000 to 15000 nM.

On to `Cc1cc([C@@H](C)Nc2ccccc2C(=O)O)c2cc(N3CCC4(CC3)CN(CC(F)(F)F)C4)n(C)c(=O)c2c1` [Example 219], for which the EC50 fell in the range of 1 to 500 nM in assay [1] (72 hours) and 2000 to 15000 nM in assay [2] (72 hours). For the same compound, the IC50 in assay [3] lay in the range of 1 to 500 nM; in assay [4] (6 hours), 2000 to 15000 nM.

In the case of `Cc1cc([C@@H](C)Nc2ccccc2C(=O)O)c2cc(N3CCN(c4cnn(C)c4)CC3)n(C)c(=O)c2c1` [Example 220], the EC50 in assay [1] (Homo sapiens, T47D, 72 h) is 1 to 500 nM; in assay [2] (Homo sapiens, SK-BR-3, 72 h), greater than 15000 nM. Besides, the IC50 in assay [3] (Homo sapiens, T47D, 6 h) lay in the range of 1 to 500 nM; in assay [4] (Homo sapiens, SK-BR-3, 6 h), 2000 to 15000 nM.

Consider `Cc1cc([C@@H](C)Nc2ccccc2C(=O)O)c2cc(N3CCN(c4ccccc4F)CC3)n(C)c(=O)c2c1` [Example 221], for which the EC50 in assay [1] (Homo sapiens, T47D, 72 h) was 1 to 500 nM; in assay [2] (Homo sapiens, SK-BR-3, 72 h), greater than 15000 nM. Moreover, the IC50 in assay [3] (Homo sapiens, T47D, 6 h) lay in the range of 1 to 500 nM; in assay [4] (Homo sapiens, SK-BR-3, 6 h) it was 2000 to 15000 nM.
